Our source for the GI50 and TGI values is PubChem BioAssay (NCI).

Some test systems named below: MDA-MB-435; DU-145 prostate; OVCAR-3 ovarian; IGROV1 ovarian; NCI-H23 lung; RXF 393 renal; HCT-116 colon; SK-MEL-5 melanoma; MDA-MB-231 breast; UACC-257 melanoma.
Holding throughout (assay): DTP human tumour cell line panel, 48 h

Several values for one entry are separate records, joined by “and”; a condition that tells them apart may be missing. Identical values can stand only once.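 Dose response: 5 concentrations. Exposure: 48 h. Format: 96-well plates. Endpoint: linear interpolation; highest concentration if not reached. Here, GI50 denotes the concentration required for 50% inhibition of growth. TGI is the concentration that stops growth completely.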

With `COc1cc(Nc2ncc(F)c(Nc3ccc4c(n3)N(COP(=O)(O)O)C(=O)C(C)(C)O4)n2)cc(OC)c1OC`, the GI50 in the assay on MDA-MB-435 was 2.78 µM and 2.67 µM; in the assay with DU-145 prostate, 3.69 µM and 3.08 µM; in the assay on OVCAR-3 ovarian it was 2.66 µM and 2.71 µM; in the assay with IGROV1 ovarian, 0.457 µM and 0.342 µM; in the assay on NCI-H23 lung it was 2.51 µM and 2.57 µM; in the assay on RXF 393 renal, 0.1 µM and 0.256 µM. Besides, the GI50 in the assay on HCT-116 colon was 3.25 µM and 3.02 µM; with SK-MEL-5 melanoma, 5.51 µM and 3.54 µM; with MDA-MB-231 breast it was 1.67 µM and 1.35 µM; with UACC-257 melanoma, 10.6 µM and 5.57 µM. Also, the total growth inhibition concentration (TGI) was 22 µM and > 10 µM in the assay with MDA-MB-435; 22.3 µM and > 10 µM in the assay on DU-145 prostate; 33.6 µM and > 10 µM in the assay with OVCAR-3 ovarian; 2.22 µM and 2.11 µM in the assay on IGROV1 ovarian; 22.7 µM and > 10 µM in the assay on NCI-H23 lung; 0.621 µM and 0.936 µM with RXF 393 renal. The TGI is 23.5 µM and > 10 µM in the assay with HCT-116 colon; 33.3 µM and > 10 µM with SK-MEL-5 melanoma; 5.07 µM and 7.69 µM in the assay on MDA-MB-231 breast; above 90.7 µM in the assay on UACC-257 melanoma.
`CCN(CC)c1ccc(C(=O)c2ccc(N(CC)CC)cc2)cc1`: the GI50 in the assay with MDA-MB-435 was 0.0694 µM; in the assay with DU-145 prostate, 0.623 µM; in the assay on OVCAR-3 ovarian it was 0.264 µM; in the assay with IGROV1 ovarian, 0.602 µM; in the assay with NCI-H23 lung, 0.74 µM; with RXF 393 renal, 0.444 µM. Besides, the GI50 in the assay on HCT-116 colon is 0.453 µM; in the assay with SK-MEL-5 melanoma, 0.384 µM; with MDA-MB-231 breast it was 1.23 µM; with UACC-257 melanoma it was 0.461 µM. In addition, the TGI in the assay with MDA-MB-435 is 0.43 µM; in the assay with DU-145 prostate, 7.23 µM; in the assay with OVCAR-3 ovarian, 0.706 µM; in the assay on IGROV1 ovarian, above 100 µM; in the assay on NCI-H23 lung, above 100 µM; with RXF 393 renal it was 1.63 µM. The TGI with HCT-116 colon was 13.6 µM; in the assay with SK-MEL-5 melanoma, 12.7 µM; in the assay on MDA-MB-231 breast, 28.2 µM; with UACC-257 melanoma it was above 59.2 µM.
As to `O=C(O)C1CC(O)CN1` (stereo not given), the TGI with MDA-MB-435, in the assay with DU-145 prostate, in the assay on OVCAR-3 ovarian, in the assay with IGROV1 ovarian, with NCI-H23 lung and with RXF 393 renal was above 100 µM each time. The TGI with HCT-116 colon, in the assay with SK-MEL-5 melanoma, with MDA-MB-231 breast and in the assay on UACC-257 melanoma was above 100 µM throughout.
Consider `Cc1cnc(C(=O)NNc2nc3sc4c(c3c(=O)n2C)C(C)CCC4)cn1` (stereo not given), for which the GI50 was 0.751 µM in the assay on MDA-MB-435; 0.458 µM with DU-145 prostate; 0.259 µM in the assay with OVCAR-3 ovarian; 0.292 µM in the assay on IGROV1 ovarian; 0.719 µM in the assay on NCI-H23 lung; 0.926 µM in the assay with RXF 393 renal. Also, the concentration for 50% growth inhibition (GI50) with HCT-116 colon was 0.26 µM; in the assay with SK-MEL-5 melanoma, 0.363 µM; in the assay with MDA-MB-231 breast, 0.335 µM; in the assay on UACC-257 melanoma, 0.353 µM. The TGI with MDA-MB-435 was 7.26 µM; in the assay on DU-145 prostate it was 4.15 µM; with OVCAR-3 ovarian it was 1.8 µM; in the assay with IGROV1 ovarian, 2.8 µM; in the assay on NCI-H23 lung, 10.3 µM; with RXF 393 renal, 3.6 µM. Also, the TGI was 7.06 µM in the assay with HCT-116 colon, 1.72 µM in the assay with SK-MEL-5 melanoma, 4.04 µM in the assay with MDA-MB-231 breast and 4.34 µM in the assay on UACC-257 melanoma.
Take `O=C1C(Cl)=C(NCc2ccco2)C(=O)c2ccccc21`: the GI50 is 2.06 µM in the assay on MDA-MB-435; 2.6 µM with DU-145 prostate; 4.93 µM in the assay on OVCAR-3 ovarian; 10.9 µM in the assay with IGROV1 ovarian; 2.5 µM in the assay on NCI-H23 lung; 21.6 µM with RXF 393 renal. Besides, the GI50 is 7.09 µM in the assay on HCT-116 colon, 1.62 µM in the assay on SK-MEL-5 melanoma, 18.4 µM in the assay with MDA-MB-231 breast and 7.81 µM in the assay on UACC-257 melanoma. The TGI stood at 3.89 µM in the assay on MDA-MB-435; 6.27 µM in the assay on DU-145 prostate; 19.4 µM in the assay with OVCAR-3 ovarian; 44 µM with IGROV1 ovarian; 10.4 µM in the assay on NCI-H23 lung; 50.6 µM with RXF 393 renal. Also, the TGI is 49.5 µM in the assay on HCT-116 colon, 3.11 µM in the assay with SK-MEL-5 melanoma, above 81.5 µM with MDA-MB-231 breast and 40 µM in the assay with UACC-257 melanoma.
On to `CCOC(=O)c1c2c(n3ccccc13)C(=O)c1ncccc1C2=O`, for which the concentration for 50% growth inhibition (GI50) was 0.194 µM in the assay with MDA-MB-435; 0.0466 µM in the assay on DU-145 prostate; 0.03 µM in the assay with OVCAR-3 ovarian; 0.0987 µM in the assay with IGROV1 ovarian; 0.0617 µM in the assay on NCI-H23 lung; 0.0792 µM in the assay on RXF 393 renal. The 50% growth inhibitory concentration (GI50) in the assay on HCT-116 colon was 0.0424 µM; in the assay with SK-MEL-5 melanoma it was 0.142 µM; with MDA-MB-231 breast it was 2.76 µM; in the assay on UACC-257 melanoma it was 0.28 µM. The TGI with MDA-MB-435 came out at 16.4 µM; with DU-145 prostate, 5.31 µM; in the assay with OVCAR-3 ovarian, 0.945 µM; in the assay with IGROV1 ovarian, 42.7 µM; with NCI-H23 lung it was 5.75 µM; in the assay with RXF 393 renal, 13.9 µM. Moreover, the TGI is 2.33 µM in the assay on HCT-116 colon, 1.51 µM in the assay on SK-MEL-5 melanoma, above 100 µM with MDA-MB-231 breast and 4.21 µM with UACC-257 melanoma.
On to `Cc1cccc(NC(=O)c2cccc([N+](=O)[O-])c2O)c1C`, for which the TGI with MDA-MB-435 is above 100 µM; with DU-145 prostate, above 100 µM; in the assay on OVCAR-3 ovarian, above 100 µM; with IGROV1 ovarian it was above 100 µM; in the assay on NCI-H23 lung it was 62.9 µM; with RXF 393 renal it was 53.6 µM. The TGI with HCT-116 colon is above 100 µM; with SK-MEL-5 melanoma, 27.6 µM; in the assay with MDA-MB-231 breast, above 100 µM; in the assay on UACC-257 melanoma it was above 79.3 µM.
Take `CCNC(=O)O[C@H]1CN[C@H](C#Cc2cc3ncnc(Nc4ccc(OCc5cccc(F)c5)c(Cl)c4)c3s2)C1`: the GI50 in the assay on MDA-MB-435 was 9.27 µM; in the assay on DU-145 prostate it was 4.72 µM; in the assay on OVCAR-3 ovarian, 3.77 µM; in the assay on IGROV1 ovarian, 2.66 µM; in the assay with NCI-H23 lung it was 9.13 µM; in the assay with RXF 393 renal, 4.75 µM. Further, the GI50 is 7.43 µM in the assay on HCT-116 colon, 10.2 µM with SK-MEL-5 melanoma, 4.35 µM in the assay on MDA-MB-231 breast and above 22.7 µM with UACC-257 melanoma. Further, the concentration for total growth inhibition (TGI) is above 25 µM in the assay with MDA-MB-435; above 25 µM with DU-145 prostate; 16.7 µM with OVCAR-3 ovarian; above 25 µM with IGROV1 ovarian; above 25 µM with NCI-H23 lung; above 17.3 µM in the assay on RXF 393 renal. Further, the TGI in the assay on HCT-116 colon is above 25 µM; with SK-MEL-5 melanoma, above 25 µM; in the assay on MDA-MB-231 breast, above 16 µM; in the assay with UACC-257 melanoma, above 25 µM.
